Like-named read-outs stand apart in the source and are kept apart here.
Tests used:
[1] = target: T1, Human recombinant DHX9 protein (Homo sapiens, UniProt Q08211); assay: DHX9 ATPase assay (ADP-Glo biochemical assay); details: for DHX9 Biochemical Max Inhibition: maximum inhibition in ATPase assay, 10 μM Aurintricarboxylic acid = 100%
T1 construct: purchased Viva

[2] = test system: DHX9 (circBRIP1 mRNA in HCT116 cells); assay: DHX9 circBRIP1 Cellular Target Engagement SYBR Green Assay; type: cell-based; details: Homo sapiens, HCT-116, circBRIP1 qPCR, 72 hours
NCI-H747 cells = assay: DHX9 Cellular Proliferation Assay (CellTiter-Glo), NCI-H747; type: cell-based; details: Homo sapiens, 120 hours, read-out: H747 (CRC-MSS) Antiproliferative IC50
[3] = test system: DHX9 (circBRIP1 mRNA in HCT116 cells); assay: DHX9 circBRIP1 Cellular Target Engagement TaqMan Multiplex Assay; type: cell-based; details: Homo sapiens, HCT-116, TaqMan Multiplex Assay (footnote *), circBRIP1 qPCR, 72 hours
LS411N cells = assay: DHX9 Cellular Proliferation Assay (CellTiter-Glo), LS411N; type: cell-based; details: Homo sapiens, LS-411N, 120 hours, read-out: LS411N (CRC-MSI-H) Antiproliferative IC50
[4] = read-out: DHX9 Biochemical Inflection Point

T1 sequence (Q08211 whole entry): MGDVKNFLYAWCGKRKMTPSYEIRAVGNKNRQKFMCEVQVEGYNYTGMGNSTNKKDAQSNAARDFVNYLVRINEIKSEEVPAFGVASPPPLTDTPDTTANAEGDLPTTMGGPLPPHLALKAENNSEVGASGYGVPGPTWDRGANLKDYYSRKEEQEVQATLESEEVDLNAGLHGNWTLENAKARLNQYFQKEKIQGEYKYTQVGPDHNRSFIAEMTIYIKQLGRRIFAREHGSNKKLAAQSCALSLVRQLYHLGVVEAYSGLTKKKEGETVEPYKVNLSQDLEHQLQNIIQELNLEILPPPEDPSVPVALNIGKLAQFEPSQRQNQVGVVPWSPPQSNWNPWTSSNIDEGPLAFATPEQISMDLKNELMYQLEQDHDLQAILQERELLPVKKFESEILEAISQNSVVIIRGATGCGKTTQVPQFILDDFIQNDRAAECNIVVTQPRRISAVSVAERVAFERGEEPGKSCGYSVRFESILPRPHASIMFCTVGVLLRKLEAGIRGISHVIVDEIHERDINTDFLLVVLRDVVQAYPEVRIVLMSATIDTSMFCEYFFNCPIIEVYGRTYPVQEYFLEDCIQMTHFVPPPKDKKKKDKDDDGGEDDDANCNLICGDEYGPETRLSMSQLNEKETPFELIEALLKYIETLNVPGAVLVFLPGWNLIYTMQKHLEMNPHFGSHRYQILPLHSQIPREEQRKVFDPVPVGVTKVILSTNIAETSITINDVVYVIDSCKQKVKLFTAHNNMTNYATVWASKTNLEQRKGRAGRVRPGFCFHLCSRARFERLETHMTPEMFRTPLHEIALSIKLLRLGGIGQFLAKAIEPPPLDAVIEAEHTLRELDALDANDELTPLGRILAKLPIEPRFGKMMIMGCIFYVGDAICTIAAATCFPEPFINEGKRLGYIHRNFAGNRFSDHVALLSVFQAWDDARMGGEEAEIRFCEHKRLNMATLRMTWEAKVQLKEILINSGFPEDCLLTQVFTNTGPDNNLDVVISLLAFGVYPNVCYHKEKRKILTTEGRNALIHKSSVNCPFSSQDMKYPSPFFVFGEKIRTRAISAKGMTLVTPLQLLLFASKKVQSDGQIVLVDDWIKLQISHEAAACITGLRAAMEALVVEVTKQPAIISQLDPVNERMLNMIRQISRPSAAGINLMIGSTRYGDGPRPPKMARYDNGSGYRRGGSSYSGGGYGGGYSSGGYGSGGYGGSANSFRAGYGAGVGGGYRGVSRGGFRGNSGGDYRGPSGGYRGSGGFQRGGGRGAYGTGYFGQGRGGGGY

Row | DHX9 Biochemical Max Inhibition [1] [%] | IC50 [1, 4] [nM] | EC50 [2] [nM] | IC50 (NCI-H747 cells) [nM] | EC50 [3] [nM] | SMILES | IC50 (LS411N cells) [nM] | IC50 [1] [nM]
1 | 77.9 | 43.2 | 5910 | – | – | CS(=O)(=O)Nc1cccc(NC(=O)c2cc(-c3ccccc3)c(CO)s2)c1 [Example 153, 5-(hydroxymethyl)-N-(3-(methylsulfonamido)phenyl)-4-phenylthiophene-2-carboxamide] | – | –
2 | 89.6 | 28.4 | – | > 10000 | 1410 | Cn1cc(C(=O)Nc2cccc(NS(C)(=O)=O)c2)cc1-c1ccc(N2CC(F)(F)C2)cn1 [Example 160, 5-[5-(3,3-difluoroazetidin-1-yl)pyridin-2-yl]-N-(3-methanesulfonamidophenyl)-1-methylpyrrole-3-carboxamide] | 9450 | –
3 | 68.3 | 1070 | > 30000 | – | – | CS(=O)(=O)Nc1cccc(NC(=O)c2cc(-c3ccccn3)n[nH]2)c1 [Example 81] | – | –
4 | 71.4 | 12.5 | 4840 | – | – | CS(=O)(=O)Nc1cccc(NC(=O)c2cc(-c3ncccn3)cs2)c1 [Example 84] | – | –
5 | 65.4 | 1020 | > 30000 | – | – | CS(=O)(=O)Nc1cccc(NC(=O)c2csc(-c3nnc[nH]3)n2)c1 [Example 33] | – | –
6 | 66.9 | 41.8 | 8560 | – | – | Cc1ccc(-c2csc(C(=O)Nc3cccc(NS(C)(=O)=O)c3)c2)cn1 [Example 65] | – | –
7 | 80.3 | 864 | > 30000 | – | – | CS(=O)(=O)Nc1cccc(NC(=O)c2ccc(N3CCCC3)cc2)c1 [Example 31] | – | –
8 | 70.7 | 41.9 | 25300 | – | – | CS(=O)(=O)Nc1cccc(NC(=O)c2cc(-c3ccccc3O)cs2)c1 [Example 57] | – | –
9 | 69.7 | 123 | 16600 | – | – | CNC(=O)c1sc(C(=O)Nc2cccc(NS(C)(=O)=O)c2)cc1-c1ccccc1 [Example 152] | – | –
10 | 68.2 | 65.4 | 10500 | – | – | CS(=O)(=O)Nc1cccc(NC(=O)c2cc(-c3ccccc3N)cs2)c1 [Example 88] | – | –
11 | 71.3 | 87.5 | > 30000 | – | – | CS(=O)(=O)Nc1cccc(NC(=O)c2cc(-c3cccnn3)cs2)c1 [Example 66] | – | –
12 | 73.1 | 17.3 | 917 | – | – | Cc1cccnc1-c1csc(C(=O)Nc2cccc(NS(C)(=O)=O)c2)c1 [Example 83] | – | –
13 | 71.2 | 32.2 | 4370 | – | – | CS(=O)(=O)Nc1cccc(NC(=O)c2cc(-c3c(O)cccc3F)cs2)c1 [Example 70] | – | –
14 | 70.7 | 19.5 | 1390 | – | – | CS(=O)(=O)Nc1cccc(NC(=O)c2cc(-c3cccc(N)n3)cs2)c1 [Example 85] | – | –
15 | 71.2 | 125 | > 30000 | – | – | CC(=O)Nc1cccnc1-c1csc(C(=O)Nc2cccc(NS(C)(=O)=O)c2)c1 [Example 94] | – | –
16 | 73.1 | 7.6 | > 30000 | – | – | CC(=O)N1CCN(c2ccc(-c3csc(C(=O)Nc4cccc(NS(C)(=O)=O)c4)c3)nc2)CC1 [Example 95] | – | –
17 | 77.2 | 22.6 | ≥ 30000 | – | – | CS(=O)(=O)Nc1cccc(NC(=O)c2cc(-c3cc(C(=O)O)ccn3)cs2)c1 [Example 87] | – | –
18 | 74 | 39.9 | 11500 | – | – | CC(=O)Nc1ccccc1-c1csc(C(=O)Nc2cccc(NS(C)(=O)=O)c2)c1 [Example 93, 4-(2-acetamidophenyl)-N-(3-(methylsulfonamido)phenyl)thiophene-2-carboxamide] | – | –

Row | DHX9 Biochemical Max Inhibition [1] [%] | IC50 [1, 4] [nM] | EC50 [2] [nM] | IC50 (NCI-H747 cells) [nM] | EC50 [3] [nM] | SMILES | IC50 (LS411N cells) [nM] | IC50 [1] [nM]
19 | 72 | 664 | > 30000 | – | – | CC(=O)c1ccc(S(=O)(=O)Nc2ccc(C(=O)Nc3cccc(NS(C)(=O)=O)c3)cc2)cc1 [Example 20] | – | –
20 | 71.1 | 45.3 | 19500 | – | – | CS(=O)(=O)Nc1cccc(NC(=O)c2cc(-c3cc(N)ccn3)cs2)c1 [Example 86] | – | –
21 | 83.3 | 355 | > 30000 | – | – | CS(=O)(=O)Nc1cccc(NC(=O)c2ccn(-c3c(F)cccc3F)n2)c1 [Example 12] | – | –
22 | 47.2 | 6510 | > 30000 | – | – | CS(=O)(=O)Nc1cccc(NC(=O)c2cc(-c3cccs3)ccn2)c1 [Example 44] | – | –
23 | 76.4 | 9.7 | 1030 | – | – | CS(=O)(=O)Nc1cccc(NC(=O)c2cc(-c3ncccc3N)cs2)c1 [Example 89] | – | –
24 | 65.8 | 333 | 28500 | – | – | CS(=O)(=O)Nc1cccc(NC(=O)c2cc(-c3ccccc3)c(C#N)s2)c1 [Example 100, 5-cyano-N-(3-(methylsulfonamido)phenyl)-4-phenylthiophene-2-carboxamide] | – | –
25 | 66.5 | 45.8 | > 30000 | – | – | CS(=O)(=O)Nc1cccc(NC(=O)c2cc(-c3cccc(C(N)=O)c3)cs2)c1 [Example 50] | – | –
26 | 72.3 | 89.4 | 2040 | – | – | CS(=O)(=O)Nc1cccc(NC(=O)c2cc(-c3ccccc3OCc3ccccc3)cs2)c1 [Example 77] | – | –
27 | 70.4 | 579 | > 30000 | – | – | Cc1cc(C)nc(-n2nc(C(=O)Nc3cccc(NS(C)(=O)=O)c3)cc2C)n1 [Example 15] | – | –
28 | 60.8 | 271 | > 30000 | – | – | CS(=O)(=O)Nc1cccc(NC(=O)c2cc(-c3cncnc3)cs2)c1 [Example 62] | – | –
29 | 66.9 | 121 | 18800 | – | – | CCOc1ncc(-c2csc(C(=O)Nc3cccc(NS(C)(=O)=O)c3)c2)cn1 [Example 63] | – | –
30 | 70.1 | 82.1 | 8280 | – | – | Cc1ccc(O)cc1-c1csc(C(=O)Nc2cccc(NS(C)(=O)=O)c2)c1 [Example 75] | – | –
31 | 75.6 | 16.3 | 4790 | – | – | CS(=O)(=O)Nc1cccc(NC(=O)c2cc(-c3ncccc3O)cs2)c1 [Example 69] | – | –
32 | 75.5 | 55.4 | > 30000 | – | – | CS(=O)(=O)Nc1cccc(NC(=O)c2cc(-c3cc(C(N)=O)ccn3)cs2)c1 [Example 92] | – | –
33 | 63.7 | 109 | 6150 | – | – | CS(=O)(=O)Nc1cccc(NC(=O)c2cc(-c3cccc(O)c3)cs2)c1 [Example 73] | – | –
34 | 69.2 | 55.8 | 3120 | – | – | CS(=O)(=O)Nc1cccc(NC(=O)c2cc(-c3cccc(N)c3)cs2)c1 [Example 58] | – | –
35 | 68.2 | 148 | 21400 | – | – | COc1cccc(-c2csc(C(=O)Nc3cccc(NS(C)(=O)=O)c3)c2)c1 [Example 56] | – | –
36 | 72.8 | 371 | > 30000 | – | – | CS(=O)(=O)Nc1cccc(NC(=O)c2cccc(-n3cccn3)c2)c1 [Example 40] | – | –

Row | SMILES | DHX9 Biochemical Max Inhibition [1] [%] | IC50 [1, 4] [nM] | EC50 [2] [nM] | IC50 (NCI-H747 cells) [nM] | EC50 [3] [nM] | IC50 (LS411N cells) [nM] | IC50 [1] [nM]
37 | CS(=O)(=O)Nc1cccc(NC(=O)c2cc(-c3ccc(N4CCNCC4)cn3)cs2)c1 [Example 91, N-(3-(methylsulfonamido)phenyl)-4-(5-(piperazin-1-yl)pyridin-2-yl)thiophene-2-carboxamide] | 74.6 | 7.2 | 7630 | – | – | – | –
38 | CCS(=O)(=O)Nc1cccc(NC(=O)c2cc(-c3ccccc3)cs2)c1 [Example 96, N-(3-(ethylsulfonamido)phenyl)-4-phenylthiophene-2-carboxamide] | 59.6 | 89.9 | 22200 | – | – | – | –
39 | Cc1c(O)cccc1-c1csc(C(=O)Nc2cccc(NS(C)(=O)=O)c2)c1 [Example 74, 4-(3-hydroxy-2-methylphenyl)-N-(3-(methylsulfonamido)phenyl)thiophene-2-carboxamide] | 71.4 | 80.6 | ≥ 30000 | – | – | – | –
40 | CS(=O)(=O)Nc1cccc(NC(=O)c2cc(C(=O)Nc3ccccc3)cs2)c1 [Example 102, N2-(3-(methylsulfonamido)phenyl)-N4-phenylthiophene-2,4-dicarboxamide] | 72.5 | – | 18900 | – | – | – | 159
41 | CS(=O)(=O)Nc1cccc(NC(=O)c2cnn(-c3ccccc3)c2)c1 [Example 1] | 71.6 | 339 | > 30000 | – | – | – | –
